# Experimental data published in patent US5420132A, “Substituted benzodioxins” (Adir et Compagnie, priority 1993, dated 1995).
# Tests used:
# [1] = Antihypoxic activity in vivo (time until first gasps); parameters: species or system mice (Swiss CD 1); settings: 30 minutes before hypoxia, control 36 ± 4
# Experimental: Male mice (Swiss CD 1 ) weighing from 25 to 30 g are, before any experiment, housed for one week under conditions customary for animals (20°-22° C., 55% humidity, light/darkness cycle 12/12, commercial feed and water as desired). The mice are placed in a box (7×5×5 cm) in which an atmosphere poor in oxygen is created by passing through a stream of air (96% N2, 4% O2, 12 l/min). The time taken until the first signs of suffocation (or "gasps") occur is measured. The mice receive a dose of the compounds to be tested by the intraperitoneal route 30 minutes before the hypoxia is induced. Vincamine is used as the reference drug.
# native human LDLs = test: Protective activity against LDL oxidation (electrophoretic method, FPLC, Cu2+ induced); assay type: biochemical; settings: 10 μM; with Cu++; 24 hours
# Experimental: Study of the protective activity against LDL oxidation (electrophoretic method)
# The capacity of the compounds of the invention to decrease the proportions of oxidised LDLs was measured by incubating a preparation comprising native human LDLs, a Cu^2+ free radical generator, and the compounds to be tested for 24 hours. The oxidation products are determined by FPLC (Fast Protein Liquid Chromatography) in accordance with the method described by B. Vedie et al., Journal of Lipid Research, 32, 1359-1369, (1991). By that method it was possible to identify 5 peaks corresponding to different degrees of LDL oxidation. Peaks A and B correspond to the native forms of LDL and peaks C, D and E correspond to the different states of oxidation of the LDLs (peak E corresponding to the most oxidised form). The results are expressed as a percentage of the LDLs corresponding to those different states of oxidation.
# [2] = Hypolipaemic activity in hypercholesterolaemic mice; assay type: in vivo; settings: 100 mg/kg p.o.; serum
# Experimental: Groups each comprising 6 mice are rendered hypercholesterolaemic by a diet that is high in cholesterol and in cholic acid for 7 days. The compounds of the invention are administered p.o. (100 mg/kg) on the 6th and 7th day (half the dose being administered on day 6 and the other half on day 7). The animals are then left without food and drink for one night. The reduction in the concentration of cholesterol in the serum compared with hypercholesterolaemic control mice is then evaluated, as is also the reduction in concentration of lipoproteins (corresponding to the LDL-VLDL fractions), after precipitation by the addition of heparin to the serum, in the same hypercholesterolaemic mice compared with the control animals.
# 5-HT2 receptors = test: Serotoninergic activity (competition with [3H]ketanserine); assay type: binding, rat (male Wistar, cerebral cortex membranes); settings: 10 μM (n=3); [3H]ketanserine 0.5 nM, 40 min/25° C.
# Experimental: The experiments are carried out on membranes prepared from the cerebral cortex of male Wistar rats (CERJ, le Genest St Isle). The binding measurements are carded out using ketanserine as reference compound. The conditions of the experiment are summarised below:
# After incubation, the membranes are quickly filtered. The filtrates are then transferred to flasks containing scintillation liquid and the bound radioactivity is determined by a liquid scintillation counter (LS6000, Beckman). The affinity of the compounds of the invention for the 5-HT2 receptors is evaluated, at the concentration 10 μM (n=3), using competition experiments.
# thoracic aorta of rats = test: Anticalcic activity (contraction induced by potassium chloride); parameters: species or system male Wistar rats; settings: Rattus norvegicus; 60 mM KCl; 2 preparations, 8 concentrations; read-out: IC50, inhibition of thoracic aorta contraction induced by potassium chloride
# Experimental: The anticalcic activity was studied in the thoracic aorta of male Wistar rats. Once they have been introduced into experimental vessels containing a physiological solution, the vascular rings are subjected to an initial tension of 2 g. The preparations are then placed in the presence of a hyperpotassic solution (60 mM of potassium chloride) in order to obtain a sustained contractile response. Increasing concentrations of the product being tested are then added for the period necessary to obtain a stable effect.
# Each compound of the invention is thus tested in 2 preparations at 8 concentrations (10^-8 M to 3×10^-5 M) to obtain a concentration-effect curve and determine the IC50.
# [3] = tested on: Human red blood corpuscles; test: Measurement of haemolysis induced by AAPH; assay type: cell-based; settings: Erythrocyte, 0.5 h, 10^-5 M, 30 minutes at 37° C.
# Experimental: Measurement of haemolysis induced by AAPH
# Human red blood corpuscles are placed for a period of 30 minutes at 37° C. in the presence of AAPH, which generates free radicals at a constant rate, and in the presence or absence of the compounds being studied. The optical density of the supernatant is measured at 403 nm compared with the control without AAPH. The percentage inhibition of haemolysis is calculated by comparison with the 100% haemolysis obtained for the AAPH control.
# [4] = tested on: platelet aggregation (rabbit plasma rich in platelets); test: Measurement of antiaggregation activity (sodium arachidonate induced); assay type: cell-based; settings: Oryctolagus cuniculus, sodium arachidonate (50 μ/ml), read-out: Minimum active concentration, inhibition of maximum non-reversible platelet aggregation
# Experimental: Measurement of antiaggregation activity
# In that study, the compounds of the invention (100 μ/ml) were tested with the aim of quantifying their ability to inhibit the maximum non-reversible platelet aggregation (rabbit plasma rich in platelets) induced by sodium arachidonate (50 μ/ml). Thus the minimum active concentration for the compound of Example 1 is 20 μM.
# lipoxygenase = test: Measurement of lipoxygenase activities (B4 leukotriene release, calcium ionophore A 23 187); assay type: cell-based; settings: 10 μM; rabbit granulocytes; average of 3
# Experimental: Measurement of lipoxygenase activities The measurements are carried out on rabbit granulocytes. The isolated granulocytes are stimulated in vitro by the calcium ionophore A 23 187. The B4 leukotrienes released in the extracellular medium are measured by Radio Immuno Assay (RIA). The results (average of 3 independent measurements) are expressed as a percentage inhibition compared with the control.
compound,measurement,setting,value
"CC[C@]12CCCN3CCc4c(n(c5ccccc45)[C@@](O)(C(=O)OC)C1)[C@@H]32 [Vincamine, reference compound]",Time until the first gasps occur,[1]; 20 mg/kg i.p.,147 ± 14 s
same,Time until the first gasps occur,"[1]; 2,5 mg/kg i.p.",inactive
"CC(C)(Sc1cc(C(C)(C)C)c(O)c(C(C)(C)C)c1)Sc1cc(C(C)(C)C)c(O)c(C(C)(C)C)c1 [probucol, reference compound]","LDL oxidised form D separated by FPLC, percentage of LDLs",native human LDLs,80%
same,"LDL oxidised form E (most oxidised) separated by FPLC, percentage of LDLs",native human LDLs,20%
"Oc1ccc2c(c1)OC=C(CN1CCN(C(c3ccc(F)cc3)c3ccc(F)cc3)CC1)O2 [Example 58, 6-HYDROXY-2-{4-[BIS-(4-FLUOROPHENYL)METHYL]PIPERAZIN-1- YLMETHYL}-1,4-BENZODIOXIN]",Reduction in the LDL-VLDL fraction,[2],35%
same,Reduction in the total cholesterol,[2],33%
same,"Inhibiting activity, 5-HT2 receptor binding",5-HT2 receptors,79%
same,IC50,thoracic aorta of rats,600 nM
"COc1ccc(CN2CCN(C(=O)C3COc4ccc(O)cc4O3)CC2)c(OC)c1OC (centres unmarked) [Example 17, 7-HYDROXY-2-[4-(2,3,4-TRIMETHOXYBENZYL)PIPERAZIN-1-YLCARBONYL]-2,3-DIHYDRO- 1,4-BENZODIOXIN]",inhibition at 10 µM,[3],100%
"O=C(Nc1ccccc1)C1=COc2ccc(O)cc2O1 [Example 13, 7-HYDROXY-2-ANILINOCARBONYL-1,4-BENZODIOXIN]",inhibition at 10 µM,[3],100%
"O=C(Nc1ccccc1)C1=COc2cc(O)ccc2O1 [Example 10, 6-HYDROXY-2-ANILINOCARBONYL-1,4-BENZODIOXIN]",Time until the first gasps occur,"[1]; 2,5 mg/kg i.p.",97 s
same,inhibition at 10 µM,[3],100%
"O=C(Nc1ccccc1)C1COc2cc(O)ccc2O1 (centres unmarked) [Example 11, 6-HYDROXY-2-ANILINOCARBONYL-2,3-DIHYDRO-1,4-BENZODIOXIN]",inhibition at 10 µM,[3],100%
"O=C(C1=COc2cc(O)ccc2O1)N1CCN(C(c2ccc(F)cc2)c2ccc(F)cc2)CC1 [Example 1, 6-HYDROXY-2-{4-[BIS(4-FLUOROPHENYL)METHYL]PIPERAZIN-1-YLCARBONYL}-1,4-BENZODIOXIN]","LDL form B separated by FPLC (native form), percentage of LDLs",native human LDLs,95%
same,"LDL oxidised form C separated by FPLC, percentage of LDLs",native human LDLs,5%
same,minimal effective concentration,[4],20 µM
same,Time until the first gasps occur,"[1]; 2,5 mg/kg i.p.",108 s
same,Inhibiting activity (B4 leukotriene release),lipoxygenase,62%
same,IC50,thoracic aorta of rats,500 nM
same,inhibition at 10 µM,[3],62%
"O=C(C1=COc2ccc(O)cc2O1)N1CCN(C(c2ccc(F)cc2)c2ccc(F)cc2)CC1 [Example 2, 7-HYDROXY-2-{4-[BIS(4-FLUOROPHENYL)METHYL]PIPERAZIN-1-YLCARBONYL}-1,4-BENZODIOXIN]",inhibition at 10 µM,[3],100%
"O=C(C1COc2cc(O)ccc2O1)N1CCN(C(c2ccc(F)cc2)c2ccc(F)cc2)CC1 (centres unmarked) [Example 3, 6-HYDROXY-2-{4-[BIS(4-FLUOROPHENYL)METHYL]PIPERAZIN -1-YLCARBONYL}-2,3-DIHYDRO-1,4-BENZODIOXIN]",inhibition at 10 µM,[3],88%
"O=C(Nc1ccccc1)C1COc2ccc(O)cc2O1 (centres unmarked) [Example 12, 7-HYDROXY-2-ANILINOCARBONYL-2,3-DIHYDRO-1,4-BENZOP DIOXIN]",inhibition at 10 µM,[3],100%
